Among the data in the OligoGym collection are 3 h FOB score values, retold here.

HELM strings list units from the 5' end as sugar, base in round brackets, then linkage (d deoxyribose, r ribose, m 2'-O-methyl, p phosphodiester). Strings are as the collection lists them; they lack the last nucleoside at the 3' end of the tested compound. [moe] = 2'-O-(2-methoxyethyl) (MOE); [sp] = phosphorothioate linkage; [m5C] = 5-methylcytosine

This series has as its target SCN2A. As to the kind of experiment: mouse, dose not given. As to conditions: ASO.
With “RNA1{[moe](G)[sp].[moe](T)p.[moe]([m5C])p.[moe](T)p.[moe]([m5C])p.d(T)[sp].d(T)[sp].d(T)[sp].d([m5C])[sp].d(T)[sp].d(T)[sp].d(A)[sp].d(T)[sp].d(T)[sp].d(T)[sp].[moe]([m5C])p.[moe](T)p.[moe](G)[sp].[moe](T)}$$$$ (last 3' nucleoside missing)”, the 3 h FOB score is 1 score 0-7.
The substance “RNA1{[moe]([m5C])[sp].[moe](A)p.[moe]([m5C])p.[moe](G)p.d([m5C])[sp].d(T)[sp].d(T)[sp].d(A)[sp].d([m5C])[sp].d(A)[sp].d(T)[sp].d([m5C])[sp].d(A)[sp].d(A)[sp].[moe](A)p.[moe]([m5C])p.[moe](A)p.[moe](T)[sp].[moe]([m5C])}$$$$ (last 3' nucleoside missing)” returned a 3 h FOB score of 0 score 0-7.
In the case of “RNA1{[moe](A)[sp].[moe](T)p.[moe](G)p.[moe]([m5C])p.d(A)[sp].d(T)[sp].d(A)[sp].d(A)[sp].d(T)[sp].d([m5C])[sp].d([m5C])[sp].d([m5C])[sp].d(A)[sp].d(T)[sp].[moe](T)p.[moe](A)p.[moe](T)p.[moe](A)[sp].[moe]([m5C])}$$$$ (last 3' nucleoside missing)” it was 0 score 0-7; in that of “RNA1{[moe]([m5C])[sp].[moe](A)p.[moe](T)p.[moe](A)p.[moe](A)p.[moe](T)p.d([m5C])[sp].d([m5C])[sp].d([m5C])[sp].d(A)[sp].d(T)[sp].d(T)[sp].d(A)[sp].d(T)[sp].d(A)[sp].d([m5C])[sp].[moe](A)p.[moe](A)[sp].[moe](A)}$$$$ (last 3' nucleoside missing)”, 0 score 0-7.
“RNA1{[moe](T)[sp].[moe](G)p.[moe](G)p.[moe](A)p.[moe]([m5C])p.[moe]([m5C])p.d(G)[sp].d(T)[sp].d([m5C])[sp].d(T)[sp].d([m5C])[sp].d(T)[sp].d(T)[sp].d(T)[sp].d([m5C])[sp].d(T)[sp].[moe](T)p.[moe](A)[sp].[moe](T)}$$$$ (last 3' nucleoside missing)” returned a 3 h FOB score of 0 score 0-7.
As for “RNA1{[moe](T)[sp].[moe]([m5C])p.[moe](A)p.[moe](T)p.[moe](G)p.d([m5C])[sp].d(A)[sp].d(T)[sp].d(A)[sp].d(A)[sp].d(T)[sp].d([m5C])[sp].d([m5C])[sp].d([m5C])[sp].d(A)[sp].[moe](T)p.[moe](T)p.[moe](A)[sp].[moe](T)}$$$$ (last 3' nucleoside missing)”, the 3 h FOB score came out at 0 score 0-7.
Substance “RNA1{[moe](A)[sp].[moe](T)p.[moe](T)p.[moe]([m5C])p.[moe](T)p.d(G)[sp].d([m5C])[sp].d(A)[sp].d(T)[sp].d(G)[sp].d(T)[sp].d(A)[sp].d(A)[sp].d([m5C])[sp].d([m5C])[sp].[moe](T)p.[moe](T)p.[moe](T)[sp].[moe](A)}$$$$ (last 3' nucleoside missing)” had a 3 h FOB score of 3 score 0-7.
On to “RNA1{[moe](T)[sp].[moe](T)p.[moe](T)p.[moe](G)p.[moe]([m5C])p.[moe]([m5C])p.d(A)[sp].d(T)[sp].d(T)[sp].d(T)[sp].d([m5C])[sp].d(T)[sp].d(A)[sp].d(T)[sp].d(A)[sp].d(A)[sp].[moe]([m5C])p.[moe](T)[sp].[moe]([m5C])}$$$$ (last 3' nucleoside missing)”, for which the 3 h FOB score turned out to be 0 score 0-7.
In the case of “RNA1{[moe](G)[sp].[moe](A)p.[moe]([m5C])p.[moe](A)p.[moe](T)p.d(A)[sp].d(T)[sp].d(T)[sp].d(T)[sp].d(T)[sp].d(T)[sp].d([m5C])[sp].d(T)[sp].d(A)[sp].d([m5C])[sp].[moe](A)p.[moe]([m5C])p.[moe](T)[sp].[moe](G)}$$$$ (last 3' nucleoside missing)” it was 1.67 score 0-7.
In the case of “RNA1{[moe](T)[sp].[moe](G)p.[moe]([m5C])p.[moe](A)p.[moe](T)p.d(A)[sp].d(A)[sp].d(T)[sp].d([m5C])[sp].d([m5C])[sp].d([m5C])[sp].d(A)[sp].d(T)[sp].d(T)[sp].d(A)[sp].[moe](T)p.[moe](A)p.[moe]([m5C])[sp].[moe](A)}$$$$ (last 3' nucleoside missing)” it was 0 score 0-7.
For the substance “RNA1{[moe](T)[sp].[moe](G)p.[moe](G)p.[moe]([m5C])p.[moe](T)p.d(A)[sp].d(T)[sp].d(A)[sp].d([m5C])[sp].d(T)[sp].d([m5C])[sp].d(A)[sp].d(T)[sp].d(T)[sp].d(G)[sp].[moe]([m5C])p.[moe](T)p.[moe]([m5C])[sp].[moe](T)}$$$$ (last 3' nucleoside missing)”, the 3 h FOB score amounted to 1 score 0-7.
The substance “RNA1{[moe]([m5C])[sp].[moe](A)p.[moe]([m5C])p.[moe](G)p.[moe](A)p.[moe]([m5C])p.d(A)[sp].d(T)[sp].d(A)[sp].d(T)[sp].d(T)[sp].d(T)[sp].d(T)[sp].d(T)[sp].d([m5C])[sp].d(T)[sp].[moe](A)p.[moe]([m5C])[sp].[moe](A)}$$$$ (last 3' nucleoside missing)” registered a 3 h FOB score of 0.5 score 0-7.
As for “RNA1{[moe](G)[sp].[moe](T)p.[moe](T)p.[moe]([m5C])p.[moe]([m5C])p.d(A)[sp].d(T)[sp].d(T)[sp].d(A)[sp].d(A)[sp].d(A)[sp].d([m5C])[sp].d(T)[sp].d(A)[sp].d(A)[sp].[moe](G)p.[moe](G)p.[moe]([m5C])[sp].[moe](T)}$$$$ (last 3' nucleoside missing)”, the 3 h FOB score was found to be 1 score 0-7.
In the case of “RNA1{[moe](A)[sp].[moe](T)p.[moe]([m5C])p.[moe](A)p.[moe]([m5C])p.[moe](T)p.d(T)[sp].d(T)[sp].d([m5C])[sp].d(A)[sp].d(T)[sp].d([m5C])[sp].d([m5C])[sp].d(A)[sp].d([m5C])[sp].d(G)[sp].[moe](A)p.[moe]([m5C])[sp].[moe](A)}$$$$ (last 3' nucleoside missing)” it was 0 score 0-7; in that of “RNA1{[moe]([m5C])[sp].[moe](T)p.[moe](G)p.[moe]([m5C])p.[moe](A)p.d(T)[sp].d(G)[sp].d(T)[sp].d(A)[sp].d(A)[sp].d([m5C])[sp].d([m5C])[sp].d(T)[sp].d(T)[sp].d(T)[sp].[moe](A)p.[moe](T)p.[moe](A)[sp].[moe]([m5C])}$$$$ (last 3' nucleoside missing)”, 0 score 0-7; in that of “RNA1{[moe](T)[sp].[moe]([m5C])p.[moe]([m5C])p.[moe](A)p.d([m5C])[sp].d(G)[sp].d(A)[sp].d([m5C])[sp].d(A)[sp].d(T)[sp].d(A)[sp].d(T)[sp].d(T)[sp].d(T)[sp].[moe](T)p.[moe](T)p.[moe]([m5C])p.[moe](T)[sp].[moe](A)}$$$$ (last 3' nucleoside missing)”, 0 score 0-7.
For “RNA1{[moe](G)[sp].[moe](A)p.[moe]([m5C])p.[moe]([m5C])p.[moe](G)p.d(T)[sp].d([m5C])[sp].d(T)[sp].d([m5C])[sp].d(T)[sp].d(T)[sp].d(T)[sp].d([m5C])[sp].d(T)[sp].d(T)[sp].[moe](A)p.[moe](T)p.[moe](T)[sp].[moe](T)}$$$$ (last 3' nucleoside missing)”, the 3 h FOB score was 0 score 0-7.
As to “RNA1{[moe](A)[sp].[moe]([m5C])p.[moe]([m5C])p.[moe](G)p.[moe](T)p.d([m5C])[sp].d(T)[sp].d([m5C])[sp].d(T)[sp].d(T)[sp].d(T)[sp].d([m5C])[sp].d(T)[sp].d(T)[sp].d(A)[sp].[moe](T)p.[moe](T)p.[moe](T)[sp].[moe]([m5C])}$$$$ (last 3' nucleoside missing)”, the 3 h FOB score turned out to be 7 score 0-7.
In the case of “RNA1{[moe](A)[sp].[moe](T)p.[moe](A)p.[moe](T)p.d(T)[sp].d(T)[sp].d(T)[sp].d(T)[sp].d([m5C])[sp].d(T)[sp].d(A)[sp].d([m5C])[sp].d(A)[sp].d([m5C])[sp].[moe](T)p.[moe](G)p.[moe]([m5C])p.[moe](T)[sp].[moe](G)}$$$$ (last 3' nucleoside missing)”, the 3 h FOB score worked out at 1 score 0-7.
In the case of “RNA1{[moe](T)[sp].[moe](G)p.[moe](T)p.[moe](A)p.[moe](A)p.d([m5C])[sp].d([m5C])[sp].d(T)[sp].d(T)[sp].d(T)[sp].d(A)[sp].d(T)[sp].d(A)[sp].d([m5C])[sp].d(A)[sp].[moe](T)p.[moe](T)p.[moe](T)[sp].[moe](A)}$$$$ (last 3' nucleoside missing)” it was 0 score 0-7; in that of “RNA1{[moe]([m5C])[sp].[moe](T)p.[moe]([m5C])p.[moe](T)p.[moe](T)p.d(T)[sp].d([m5C])[sp].d(T)[sp].d(T)[sp].d(A)[sp].d(T)[sp].d(T)[sp].d(T)[sp].d([m5C])[sp].d(T)[sp].[moe](G)p.[moe](T)p.[moe](T)[sp].[moe](T)}$$$$ (last 3' nucleoside missing)”, 0 score 0-7.
“RNA1{[moe](T)[sp].[moe](A)p.[moe](T)p.[moe](T)p.[moe](T)p.d(T)[sp].d(T)[sp].d([m5C])[sp].d(T)[sp].d(A)[sp].d([m5C])[sp].d(A)[sp].d([m5C])[sp].d(T)[sp].d(G)[sp].[moe]([m5C])p.[moe](T)p.[moe](G)[sp].[moe]([m5C])}$$$$ (last 3' nucleoside missing)” returned a 3 h FOB score of 2.67 score 0-7.
Regarding “RNA1{[moe]([m5C])[sp].[moe](T)p.[moe](G)p.[moe]([m5C])p.[moe](A)[sp].d(T)[sp].d(G)[sp].d(T)[sp].d(A)[sp].d(A)[sp].d([m5C])[sp].d([m5C])[sp].d(T)[sp].[moe](T)p.[moe](T)p.[moe](A)[sp].[moe](T)}$$$$ (last 3' nucleoside missing)”, the 3 h FOB score is 0.5 score 0-7.
As for “RNA1{[moe](G)[sp].[moe](A)p.[moe]([m5C])p.[moe]([m5C])p.[moe](A)p.[moe]([m5C])p.d(G)[sp].d([m5C])[sp].d(T)[sp].d(T)[sp].d(A)[sp].d([m5C])[sp].d(A)[sp].d(T)[sp].d([m5C])[sp].d(A)[sp].[moe](A)p.[moe](A)[sp].[moe]([m5C])}$$$$ (last 3' nucleoside missing)”, the 3 h FOB score is 0 score 0-7.
Consider “RNA1{[moe](A)[sp].[moe]([m5C])p.[moe]([m5C])p.[moe](G)p.[moe](A)p.[moe](A)p.d(T)[sp].d(T)[sp].d([m5C])[sp].d(T)[sp].d(A)[sp].d(T)[sp].d(T)[sp].d(T)[sp].d(T)[sp].d(A)[sp].[moe](T)p.[moe](A)[sp].[moe](A)}$$$$ (last 3' nucleoside missing)”, for which the 3 h FOB score amounted to 1.67 score 0-7.
